These results are taken from ChEMBL document CHEMBL1146651, “Selective urokinase-type plasminogen activator (uPA) inhibitors. Part 3: 1-isoquinolinylguanidines” (Bioorg Med Chem Lett, 2004).

As usually defined, the Ki is a dissociation constant, usually derived from enzyme kinetics or from competition with a known ligand. The low end stands for tighter binding, the high end for weaker binding. Usually inhibition stands for the share of the control response that was lost under treatment. Higher therefore signals a strong effect.

The target of test [1] is Urokinase-type plasminogen activator (Homo sapiens, UniProt P00749).
In test [2] the target is T1, Plasminogen (Homo sapiens, UniProt P00747). The test is described as follows: Inhibitory activity against human plasmin was evaluated using chromozym-PL as substrate at 10 uM.
T1 sequence (P00747 97-580 limits assumed): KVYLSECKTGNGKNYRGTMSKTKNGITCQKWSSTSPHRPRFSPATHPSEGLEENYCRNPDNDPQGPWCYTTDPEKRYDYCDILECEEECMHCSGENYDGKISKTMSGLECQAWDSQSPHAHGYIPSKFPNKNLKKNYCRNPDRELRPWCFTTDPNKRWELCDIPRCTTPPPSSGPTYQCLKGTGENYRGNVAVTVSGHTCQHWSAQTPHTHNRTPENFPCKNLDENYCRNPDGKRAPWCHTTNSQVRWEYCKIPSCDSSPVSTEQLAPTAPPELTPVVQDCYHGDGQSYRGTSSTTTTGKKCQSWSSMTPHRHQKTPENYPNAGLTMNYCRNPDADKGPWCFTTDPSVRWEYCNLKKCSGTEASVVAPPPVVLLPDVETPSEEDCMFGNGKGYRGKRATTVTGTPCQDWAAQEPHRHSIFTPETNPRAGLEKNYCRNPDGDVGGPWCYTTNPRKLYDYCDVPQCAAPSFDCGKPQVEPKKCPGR
T1 sequence (P00747 581-810 limits assumed): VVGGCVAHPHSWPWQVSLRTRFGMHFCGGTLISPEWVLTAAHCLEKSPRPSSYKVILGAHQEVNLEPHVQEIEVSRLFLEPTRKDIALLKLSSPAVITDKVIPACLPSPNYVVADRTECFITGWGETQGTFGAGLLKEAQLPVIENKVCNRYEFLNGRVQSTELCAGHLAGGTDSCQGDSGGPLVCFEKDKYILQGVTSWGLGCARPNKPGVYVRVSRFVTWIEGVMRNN
Test [3] concerns the target T2, Tissue-type plasminogen activator (Homo sapiens, UniProt P00750). The test is described as follows: Inhibitory activity against human tissue type plasminogen activator was evaluated using S-2444 as substrate and tissue plasminogen activator stimulator at […].
Target sequence in this assay (P00750 36-562 limits assumed): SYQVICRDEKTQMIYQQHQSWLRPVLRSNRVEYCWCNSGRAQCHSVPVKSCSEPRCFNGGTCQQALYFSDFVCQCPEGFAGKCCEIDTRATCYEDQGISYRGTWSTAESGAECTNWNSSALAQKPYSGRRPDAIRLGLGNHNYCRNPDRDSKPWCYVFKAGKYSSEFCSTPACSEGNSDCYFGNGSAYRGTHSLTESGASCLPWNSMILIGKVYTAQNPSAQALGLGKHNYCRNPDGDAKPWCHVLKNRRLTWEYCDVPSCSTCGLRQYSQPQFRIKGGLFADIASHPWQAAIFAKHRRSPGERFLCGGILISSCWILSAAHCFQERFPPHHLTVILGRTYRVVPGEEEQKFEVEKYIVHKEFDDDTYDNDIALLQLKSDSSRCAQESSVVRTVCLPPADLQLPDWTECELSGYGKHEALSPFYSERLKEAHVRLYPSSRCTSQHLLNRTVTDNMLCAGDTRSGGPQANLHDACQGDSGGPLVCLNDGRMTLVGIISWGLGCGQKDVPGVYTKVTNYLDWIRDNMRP
Test [4] has as its target T1, Plasminogen. In words: Inhibitory activity against human plasmin was evaluated using chromozym-PL as substrate at 100 mM.
The target in test [5] is T1, Plasminogen. The test is described as follows: Inhibition of human plasmin activity with chromozym-PL as substrate.
Test [6] deals with T2, Tissue-type plasminogen activator. In words: Inhibitory activity against human tissue type plasminogen activator using S-2444.
Target sequence in this assay (P00750 whole entry): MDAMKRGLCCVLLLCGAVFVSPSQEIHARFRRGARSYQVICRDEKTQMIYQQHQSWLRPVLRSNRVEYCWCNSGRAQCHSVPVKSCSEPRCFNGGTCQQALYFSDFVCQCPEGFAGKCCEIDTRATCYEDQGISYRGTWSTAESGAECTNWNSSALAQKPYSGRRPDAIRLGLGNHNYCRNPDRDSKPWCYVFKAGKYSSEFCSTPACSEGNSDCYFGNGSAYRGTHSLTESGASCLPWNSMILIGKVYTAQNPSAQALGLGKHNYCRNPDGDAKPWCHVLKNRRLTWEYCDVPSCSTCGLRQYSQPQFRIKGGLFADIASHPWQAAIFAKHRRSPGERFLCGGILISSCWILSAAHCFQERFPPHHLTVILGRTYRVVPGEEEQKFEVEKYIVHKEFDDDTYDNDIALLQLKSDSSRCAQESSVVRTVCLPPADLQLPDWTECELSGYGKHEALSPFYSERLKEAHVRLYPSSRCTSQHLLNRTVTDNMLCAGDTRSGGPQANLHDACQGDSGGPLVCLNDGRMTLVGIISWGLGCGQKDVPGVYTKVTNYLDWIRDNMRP
Test [7] shares this target. The test is described as follows: Inhibitory activity against human tissue plasminogen activator was evaluated using S-2444 as substrate and tissue plasminogen activator stimulator at 1 mM.
Target sequence in this assay (P00750 36-562 limits assumed): as the sequence (P00750 36-562 limits assumed) above
The target in test [8] is T1, Plasminogen. The test is described as follows: (§1) Inhibitory activity against human plasmin was evaluated using chromozym-PL as substrate at 1 mM.
The target in test [9] is T1, Plasminogen. The test is described as follows: Inhibitory activity of 3 uM compound against plasmin was evaluated using chromozym-PL as substrate.
Test [10] addresses T1, Plasminogen. The test is described as follows: Inhibitory activity against human plasmin was evaluated using chromozym-PL as substrate at 300 mM.
The target in test [11] is T1, Plasminogen. In words: Inhibitory activity of 30 uM compound against plasmin was evaluated using chromozym-PL as substrate.
The target in test [12] is T2, Tissue-type plasminogen activator. The test is described as follows: Inhibitory activity against human tissue plasminogen activator was evaluated using S-2444 as substrate and tissue plasminogen activator stimulator at 30 uM.
Target sequence in this assay (P00750 36-562 limits assumed): as above
Test [13] deals with T1, Plasminogen. The test is described as §1. The source holds these as a separate data set.

Take `NC(N)=Nc1ncc(Cl)c2ccc(-c3cccc(C(=O)O)c3)cc12`: in test [1], the Ki is 0.037 µM.

For the molecule `N#Cc1ccc(-c2ccc3c(Cl)cnc(NC(=N)N)c3c2)cc1`, the values for the inhibition (at Plasminogen [2]; in [3]) were 82% and below 50%, respectively.

For `COc1ccc2ccnc(N=C(N)N)c2c1`, the Ki in test [1] was found to be 0.66 µM. Besides, the inhibition (on Plasminogen [4]; in test [3]) was below 50% in each case.

In turn, `NC(N)=Nc1nccc2cc(Br)ccc12` yielded an inhibitory constant (Ki) on Plasminogen [5] of 131 µM.

Take `Cc1ccc(-c2ccc3c(Cl)cnc(N=C(N)N)c3c2)cc1`: the inhibition constant Ki came to 19 µM in test [6], 7.3 µM on Plasminogen [5] and 0.13 µM in [1].

As to `N=C(N)Nc1nccc2ccc(C(=O)O)cc12`, the inhibition (at Plasminogen [4]; in [3]) was below 50% each time.

For `COc1ccc(-c2ccc3c(Cl)cnc(N=C(N)N)c3c2)cc1`, the Ki at Plasminogen [5] was 3 µM. Moreover, the inhibition in test [3] is below 50%.

Consider `N#Cc1cccc(-c2ccc3c(Cl)cnc(N=C(N)N)c3c2)c1`, for which the values for the Ki (on Plasminogen [5]; in test [1]) were 4.1 µM and 0.3 µM, respectively.

For `N=C(N)Nc1nccc2cc(Br)ccc12`, the inhibition in test [7] was below 50%.

For `COc1ccc(C(=O)O)cc1-c1ccc2c(Cl)cnc(N=C(N)N)c2c1`, the inhibition constant Ki on Plasminogen [5] was found to be 4.75 µM; in [1], 0.009 µM. In test [3], this molecule displayed an inhibition below 50%.

As to `N=C(N)Nc1nccc2ccc(OCc3ccccc3)cc12`, the inhibition constant Ki was 13 µM in test [6] and 4.8 µM in test [1]. This molecule had an inhibition at Plasminogen [4] below 50%.

On to `N=C(N)Nc1cc2ccccc2cn1`, for which the inhibition (in test [7]; on Plasminogen [8]) was below 50% in each case.

On to `N=C(N)Nc1ccccn1`, for which the affinity in test [1], expressed as Ki, was 29 µM.

Regarding `N=C(N)Nc1ncc(Cl)c2ccc(-c3ccc(C(=O)O)cc3)cc12`, the results for the inhibition (at Plasminogen [9]; in [3]) were 65% and below 50%, respectively. Further, the Ki in [1] was 0.082 µM.

As for `N=C(N)Nc1ncc(Cl)c2ccc(-c3cccc(C(=O)O)c3)cc12`, the inhibition (against Plasminogen [2]; in test [3]) was below 50% each time.

On to `N#Cc1cccc(-c2ccc3c(Cl)cnc(NC(=N)N)c3c2)c1`, for which the inhibition in test [3] is below 50%.

On to `N#Cc1ccc(-c2ccc3c(Cl)cnc(N=C(N)N)c3c2)cc1`, for which, in test [1], the Ki was 0.49 µM.

`N=C(N)Nc1nccc2c(OCc3ccccc3)cccc12` registered an inhibition on Plasminogen [4] below 50%.

Take `NC(N)=Nc1nccc2ccc(-c3ccccc3)cc12`: the inhibitory constant (Ki) in [6] amounted to 124 µM; on Plasminogen [5], 47.5 µM; in test [1], 0.4 µM.

With `COc1cccc2c(N=C(N)N)nccc12`, the inhibition (in test [7]; against Plasminogen [10]) was below 50% each time. This molecule also came in with an inhibition constant (Ki) in [1] of 3.62 µM.

On to `NC(N)=Nc1nccc2c(-c3ccccc3)cccc12`, for which the inhibition constant Ki in test [6] was 124 µM; at Plasminogen [5], 47.5 µM; in test [1], above 100 µM.

For the molecule `COc1ccccc1-c1ccc2c(Cl)cnc(N=C(N)N)c2c1`, the figures for the Ki (in test [6]; at Plasminogen [5]) were 15.5 µM and 14.5 µM, respectively.

For the molecule `N=C(N)Nc1ncc(Br)c2ccccc12`, affinity in [6] was put at a Ki of 159 µM. On Plasminogen [8], this molecule displayed an inhibition below 50%.

Consider `NC(N)=Nc1nccc2c(OCc3ccccc3)cccc12`, for which, in test [6], the affinity corresponds to a Ki of 13 µM.

In the case of `CC(O)c1ccc2ccnc(N=C(N)N)c2c1` (configuration not stated), the Ki at Plasminogen [5] stood at 24 µM; in test [1], 0.64 µM. Further, the inhibition in test [3] is below 50%.

For the molecule `COc1ccc(C#N)cc1-c1ccc2c(Cl)cnc(N=C(N)N)c2c1`, the inhibition (against Plasminogen [11]; in test [3]) was below 50% each time. In test [1], this molecule showed a Ki of 0.18 µM.

Consider `N=C(N)Nc1nccc2c(Br)cccc12`, for which the figures for the Ki (in test [6]; at Plasminogen [5]; in [1]) were 140 µM, 238 µM and 4.93 µM, respectively.

On to `N=C(N)Nc1nccc2ccc(CO)cc12`, for which the affinity in test [1], expressed as Ki, was 1.3 µM. For the same molecule, the inhibition at Plasminogen [4] was 55%; in [3] it was below 50%.

`NC(N)=Nc1ncc(Cl)c2ccccc12`: the Ki is 128 µM in test [6] and 0.83 µM in [1].

For `N=C(N)Nc1nccc2ccc(-c3ccc4c(c3)OCO4)cc12`, the inhibition in [7] turned out to be 55%. In addition, the Ki on Plasminogen [5] was found to be 12 µM.

For `N=C(N)Nc1ccc2ccccc2n1`, the inhibition against Plasminogen [8] was below 50%.

As for `NC(N)=Nc1nccc2ccc(Br)cc12`, the inhibition constant (Ki) in test [6] stood at 95.1 µM; at Plasminogen [5] it was 50.8 µM.

In the case of `NC(N)=Nc1ccc2ccccc2n1`, the inhibitory constant (Ki) was found to be 367 µM in [6] and 209 µM in [1].

`COc1cccc(-c2ccc3c(Cl)cnc(N=C(N)N)c3c2)c1` displayed an inhibition constant Ki in test [1] of 0.083 µM. The inhibition in test [3] is below 50%.

On to `Cc1cnc(N=C(N)N)c2ccccc12`, for which the inhibition (against Plasminogen [4]; in test [3]) was below 50% each time.

Take `N=C(N)Nc1ncc(Cl)c2ccc(-c3ccccc3)cc12`: the inhibition (in test [12]; on Plasminogen [11]) was below 50% in each case.

Take `N=C(N)Nc1ncc(Cl)c2ccc(-c3ccc4c(c3)OCO4)cc12`: the inhibition constant (Ki) at Plasminogen [5] stood at 3.2 µM; in test [1], 0.1 µM. The same molecule had an inhibition in [3] below 50%.

Take `NC(N)=Nc1nccc2ccccc12`: the results for the inhibition constant (Ki) (in [6]; in [1]; on Plasminogen [13]) were 126 µM, 1.92 µM and 68 µM, respectively.

At Plasminogen [8], `N=C(N)Nc1ncc(Cl)c2ccccc12` registered an inhibition below 50%.
